Reference: patent US20050256132A1, “Use of ER selective NF-kB inhibitors for the treatment of sepsis” (priority 2003, published 2005)
Read-outs that look alike come from different tables or passages of the source.

Experiments:
[1] = test system: ER/IL-6; assay: Endothelial Cell ER/IL-6 Assay, IL-6 promoter luciferase (Table 2); type: cell-based, human; details: Homo sapiens; for Emax: read-out: IL6 luc % Efficacy
Description: T-175 flasks of 100% confluent HAECT-1 cells (immortalized human aortic endothelial cells) were washed with 8 ml of HBSS (HEPES buffered saline solution) and infected for fours hours with 6 ml of a 1:10 dilution of Ad5-wt-hERα virus (an adenovirus transfection vector that mediates CMV promoter driven expression of human ERα) in phenol red free Endothelial Cell Basal medium (Clonetics, San Diego, Calif., Catalog # CC-3129) containing 0.25% bovine serum albumin (EDM-BSA). After four hours, cells were washed with EDM-BSA and incubated overnight in the same medium. Following overnight incubation, cells were washed with EDM-BSA and infected for 2 hours with 6 ml of a 1:10 dilution of Ad5-3x(NFκB).Luc virus (Adenovirus luciferase expression vector driven by three repeats of the MHC NFκb sites 5′ to the thymidine kinase promoter) in EDM-BSA. After two hours, cells were washed and incubated at 34° C. for one hour. Cells were then washed, trypsinized, counted, and resuspended in 95% FBS/5% dimethylsulfoxide at a concentration of […], frozen as 1 or 5 ml aliquots in cryo-vials and stored at −150° C. Control (no ER infection) cells were processed as above without Ad5-wt-hERα virus infection.
ERα infected HAECT-1 cells or control cells were thawed, diluted 42× in warm EBM-BSA, plated into 96-well plates at 0.1 ml/well and incubated for 4 hours at 34° C. Test compounds were added to the cells at 2× stocks in EBM-BSA containing 2 ng/ml IL-1β Ad6-IL-6(1250 bp).Luc virus and plates were returned to the incubator (34° C.). After […], cells were lysed with 50 μl of Promega Cell Culture Lysis reagenet for about 5 minutes at room temperature on a shaker. After lysing, 15 μl of lysate is transferred to luminometer plates for luciferase determination. Luciferase activity is evaluated using a Perkin Elmer Victor2 1420 multilabel counter. Creatine kinase was determined from the rate of increase in A340 following addition of 100 μl of CK assay reagent (Sigma catalog no. 47-10) to the remainder of the cell lysate.
For IC50 and EC50 calculations, mean IL-6, luciferase or CK values versus log10 of the compound concentration were fitted to a four parameter logistic equation. The IC50/EC50 value, ‘Hill slope,’ upper and lower limits of the curve were iteratively estimated.

[2] = HAECT1, ERα infected HAECT-1 cells, IL-1β
[3] = HAECT1, ERα infected HAECT-1 cells, IL-1β, read-out: IL6 luc IC50

COc1ccccc1[C@H](c1cccc2ccccc12)[C@@](C)(C#N)C(=O)N1CCC(=O)CC1 [Example 191, (2S,3S)-3-(2-methoxyphenyl)-2-methyl-3-(1-naphthyl)-2-[(4-oxopiperidin-1-yl)carbonyl]propanenitrile]
melting point: 209 to 210 °C | IC50 ([1]; HAECT1, read-out: IL6 luc IC50): 586 nM

COC(=O)[C@@](C#N)(Cc1ccncc1)[C@H](c1ccccc1OC)c1cccc2ccccc12 (relative stereo) [Example 142, Methyl (2S*,3S*)-2-cyano-3-(2-methoxyphenyl)-3-(1-naphthyl)-2-(pyridin-4-ylmethyl)propanoate]
melting point: 228 to 230 °C (dec.) | Emax [1, 2]: 103% | IC50 [1, 3]: 69 nM

COc1ccccc1[C@H](c1cccc2ccccc12)[C@@](C)(C#N)C(=O)N1CCC(c2cccc(C(F)(F)F)c2)C(O)C1 (stereo partly drawn) [Example 185, (2S)-3-{3-hydroxy-4-[3-(trifluoromethyl)phenyl]piperidin-1-yl}-2-[(S)-(2-methoxyphenyl)(1-naphthyl)methyl]-2-methyl-3-oxopropanenitrile]
melting point: 259 °C | Emax [1, 2]: 116% | IC50 [1, 3]: 288 nM

COc1ccccc1[C@H](c1cccc2ccccc12)[C@@](C)(C#N)C(=O)N1CCN(c2ccncc2)CC1 [Example 133, (2S,3S)-3-(2-methoxyphenyl)-2-methyl-3-(1-naphthyl)-2-[(4-pyridin-4-ylpiperazin-1-yl)carbonyl]propanenitrile]
melting point: 142 to 144 °C | Emax [1, 2]: 81% | IC50 [1, 3]: 206 nM

COC(=O)[C@@](C#N)(COCc1ccccc1)[C@H](c1ccccc1OC)c1cccc2ccccc12 (relative stereo) [Example 146, Methyl (2S*,3S*)-2-[(benzyloxy)methyl]-2-cyano-3-(2-methoxyphenyl)-3-(1-naphthyl)propanoate]
melting point: 132.9 to 134.4 °C | Emax [1, 2]: 135% | IC50 [1, 3]: 5.5 nM

COc1ccccc1[C@@H](c1cccc2ccccc12)[C@](C#N)(COCc1ccccc1)C(=O)N1CCN(CCCN(C)C)CC1 (relative stereo) [Example 205, (2S*)-2-[(benzyloxy)methyl]-3-{4-[3-(dimethylamino)propyl]piperazin-1-yl}-2-[(R*)-(2-methoxyphenyl)(1-naphthyl)methyl]-3-oxopropanenitrile]
melting point: 192 to 193 °C | Emax [1, 2]: 58% | IC50 [1, 3]: 334 nM

COc1ccccc1C(c1cccc2ccccc12)C(C#N)(COCc1ccccc1)C(=O)N1CCN(CCN2CCOCC2)CC1 (stereo not drawn) [Example 208, 2-[(benzyloxy)methyl]-3-(2-methoxyphenyl)-2-{[4-(2-morpholin-4-ylethyl)piperazin-1-yl]carbonyl}-3-(1-naphthyl)propanenitrile]
melting point: 162 °C | Emax [1, 2]: 50% | IC50 [1, 3]: 13 nM

COC[C@](C#N)(C(=O)OC(C)(C)C)[C@H](c1ccccc1OC)c1cccc2ccccc12 (relative stereo) [Example 149, tert-Butyl (2S*,3S*)-2-cyano-2-(methoxymethyl)-3-(2-methoxyphenyl)-3-(1-naphthyl)propanoate]
melting point: 163 to 165.3 °C | Emax [1, 2]: 102% | IC50 [1, 3]: 18 nM

COc1ccccc1[C@H](c1cccc2ccccc12)[C@@](C)(C#N)C(=O)N1CCC(C2CCCC(C(F)(F)F)C2)CC1 (stereo partly drawn) [Example 139, (2S,3S)-3-(2-methoxyphenyl)-2-methyl-3-(1-naphthyl)-2-({4-[3-(trifluoromethyl)cyclohexyl]piperidin-1-yl}carbonyl)propanenitrile]
melting point: 160 to 165 °C | Emax [1, 2]: 98% | IC50 [1, 3]: 113 nM

COc1ccccc1[C@H](c1cccc2ccccc12)[C@@](C)(C#N)C(=O)N1CCN(c2cccc(C(F)(F)F)c2)CC1 [Example 136, (2S,3S)-3-(2-methoxyphenyl)-2-methyl-3-(1-naphthyl)-2-({4-[3-(trifluoromethyl)phenyl]piperazin-1-yl}carbonyl)propanenitrile]
melting point: 158 to 162 °C | Emax [1, 2]: 142% | IC50 [1, 3]: 63 nM

COCCN1CCN(C(=O)C(C#N)(COC)C(c2ccccc2OC)c2cccc3ccccc23)CC1 (stereo not drawn) [Example 206, 3-[4-(2-methoxyethyl)piperazin-1-yl]-2-(methoxymethyl)-2-[(2-methoxyphenyl)(1-naphthyl)methyl]-3-oxopropanenitrile]
melting point: 156 to 158 °C | Emax [1, 2]: 83% | IC50 [1, 3]: 345 nM

CCC(=O)C1(c2ccccc2)CCN(C(=O)[C@](C)(C#N)[C@H](c2ccccc2OC)c2cccc3ccccc23)CC1 [Example 194, (2S,3S)-3-(2-methoxyphenyl)-2-methyl-3-(1-naphthyl)-2-[(4-phenyl-4-propionylpiperidin-1-yl)carbonyl]propanenitrile]
melting point: 126 to 128 °C | Emax [1, 2]: 150% | IC50 [1, 3]: 132 nM

COCCN1CCN(C(=O)[C@](C)(C#N)[C@H](c2ccccc2OC)c2cccc3ccccc23)CC1 [Example 197, (2S)-3-[4-(2-methoxyethyl)piperazin-1-yl]-2-[(S)-(2-methoxyphenyl)(1-naphthyl)methyl]-2-methyl-3-oxopropanenitrile]
melting point: 144 °C | Emax [1, 2]: 46% | IC50 [1, 3]: 39 nM

COc1ccccc1[C@H](c1cccc2ccccc12)[C@@](C)(C#N)C(=O)N1CC=C(c2c[nH]c3ccccc23)CC1 [Example 182, (2S)-3-[4-(1H-indol-3-yl)-3,6-dihydropyridin-1(2H)-yl]-2-[(s)-(2-methoxyphenyl)(1-naphthyl)methyl]-2-methyl-3-oxopropanenitrile]
melting point: 229 to 231 °C | Emax [1, 2]: 74% | IC50 [1, 3]: 45 nM

COc1ccccc1[C@H](c1cccc2ccccc12)[C@@](C)(C#N)C(=O)N1CC=C(c2ccc(Br)cc2)CC1 [Example 135, (2S)-3-[4-(4-bromophenyl)-3,6-dihydropyridin-1(2H)-yl]-2-[(S)-(2-methoxyphenyl)(1-naphthyl)methyl]-2-methyl-3-oxopropanenitrile]
melting point: 136 to 139 °C | Emax [1, 2]: 119% | IC50 [1, 3]: 65 nM

COC(=O)[C@@](C#N)(Cc1cccnc1)[C@H](c1ccccc1OC)c1cccc2ccccc12 [Example 156, Methyl (2S,3S)-2-cyano-3-(2-methoxyphenyl)-3-(1-naphthyl)-2-(pyridin-3-ylmethyl)propanoate]
melting point: 193 °C (dec.) | Emax [1, 2]: 73%

COc1ccccc1[C@H](c1cccc2ccccc12)[C@@](C)(C#N)C(=O)N1CCC2(CC1)C(=O)NCN2c1ccccc1 [Example 184, (2S,3S)-3-(2-methoxyphenyl)-2-methyl-3-(1-naphthyl)-2-[(4-oxo-1-phenyl-1,3,8-triazaspiro[4.5]dec-8-yl)carbonyl]propanenitrile]
melting point: 176 to 178 °C | Emax [1, 2]: 88% | IC50 [1, 3]: 445 nM

COc1ccccc1[C@H](c1cccc2ccccc12)[C@@](C)(C#N)C(=O)N1CCN(CCCN(C)C)CC1 [Example 202, (2S)-3-{4-[3-(dimethylamino)propyl]piperazin-1-yl}-2-[(S)-(2-methoxyphenyl)(1-naphthyl)methyl]-2-methyl-3-oxopropanenitrile]
melting point: 78 to 80 °C | Emax [1, 2]: 43%

COc1ccccc1[C@H](c1cccc2ccccc12)[C@@](C)(C#N)C(=O)N1CCN(c2cccc(C)c2C)CC1
melting point: 194 to 195 °C

COc1ccccc1[C@H](c1cccc2ccccc12)[C@@](C)(C#N)C(=O)N1CC=C(c2ccc(Cl)cc2)CC1
melting point: 118 to 122 °C

Cc1cccc(C)c1C(c1cccc2ccccc12)C(C#N)C(=O)OC(C)(C)C (stereo not drawn)
melting point: 124 to 128 °C

COc1ccccc1[C@H](c1cccc2ccccc12)[C@@](C)(C#N)C(=O)N1CCN(c2ccc(Cl)cc2)CC1
melting point: 178 to 180 °C

CCOC(=O)C(C)(C#N)C(c1cccc2ccccc12)c1cccc2ccccc12 (stereo not drawn)
melting point: 186 to 188 °C

COc1cccc(N2CCN(C(=O)[C@](C)(C#N)[C@H](c3ccccc3OC)c3cccc4ccccc34)CC2)c1
melting point: 147 to 148 °C

CC(C)(C)OC(=O)[C@@](C)(C#N)[C@H](c1ccccc1OC(F)(F)F)c1cccc2ccccc12 (racemic)
melting point: 150 to 153 °C

COc1ccccc1[C@H](c1cccc2ccccc12)[C@@](C)(C#N)C(=O)N1CCN(c2ccccc2F)CC1
melting point: 145 to 148 °C

COc1ccccc1[C@H](c1cccc2ccccc12)[C@@](C)(C#N)C(=O)N1CCN(c2cccc3[nH]ccc23)CC1
melting point: 174 to 176 °C
